Experimental data reported in patent US5728686A, “Alkylxanthine phosphonates and alkylxanthine phosphine oxides and their use as pharmaceuticals” (Hoechst Aktiengesellschaft, priority 1996, dated 1998).
Values after ≈ are worked out from the molar mass of the structure shown. Like-named read-outs stand apart in the source and are kept apart here.

Key:
soleus muscle = test: rat muscle function test: muscle weight (atrophy of immobilized extremity); type: in vivo, male Wistar rats; details: oral, 1x per day for 3 weeks, as a rule 25 mg/kg, difference ≤25% classified as an effect
Description: (§1) 1. Activity in the rat muscle function test
(§2) Male Wistar rats (body weight about 300 g) were kept under standard conditions with feed and water ad libitum. The right rear extremity was immobilized by fitting a kind of "shoe" to the animals under short-term anaesthesia. Two ergonomically fitted halves of the "shoe" were cast from a liquid plastic material which is also used for the production of dental prostheses, these were put onto the animal under brief anaesthesia and joined with the aid of a wire. The material is light but hard, so that the animals cannot gnaw the material, and the "shoe" can be opened at any time to examine the condition of the immobilized extremity. The two halves were moreover padded out with chamois leather in order to avoid compressions and possible injuries due to rubbing. The system also has the advantage that the angle of immobilization is standardized in all animals; this would not be possible with a plaster cast. The chosen angle allows the animals to take up a normal sitting position despite the "shoe" and also to carry the body weight using this extremity. Only complete stretching or bending of the leg is impossible.
In spite of this, a significant decrease in the skeletal muscle mass (atrophy) of the immobilized extremity occurred, to be precise up to -35% in comparison with the contralateral nonimmobilized rear extremity. As the soleus muscle was the most severely affected, the changes in muscle weight after administration of preparation shown in Table 1 relate to this muscle. A difference of ≤25% between the right immobilized and left non-immobilized rear extremity was classified as an effect.
(§3) After 3 weeks' immobilization of the right rear extremity and simultaneous oral administration of test preparations (1× per day using a stomach tube; as a rule 25 mg/kg of body weight, in carboxymethylcellulose, the animals were weighed and anaesthetized with pentobarbital (35 mg/kg i.p.). Functional parameters were measured during direct electrical stimulation of a muscle group (gastrocnemius, plantaris and soleus). This muscle group, merely called "muscle" in the following, was exposed at the ankle tendon and tied to a force transducer via the tendon.

[1] = tested on: muscle group (gastrocnemius, plantaris and soleus) of the immobilized right rear extremity; test: rat muscle function test: direct electrical stimulation of muscle group after 3 weeks' immobilization; type: in vivo, male Wistar rats; details: oral, 1x per day for 3 weeks, as a rule 25 mg/kg, ≤-12% classified as active; for Force (force under the contraction curve, right/left difference): isometric stimulation, control difference approx. 25%; for Work (performed work, right/left difference): isotonic stimulation, control approx. -25%
Description: as §1, §2, §3
To determine the contractile force, the muscles were stimulated isometrically, i.e. a preload of 0.5N was applied and the muscle was stimulated by means of a series of electrical pulses, which led to a maximum contraction, every 0.7 sec for 80 msec for a period of 15 min. […] The area under this contraction curve was evaluated and the difference in percent between the right atrophic and left normal muscle compared (force under the contraction curve as difference in percent (Δ%)). The difference in the control group is approximately 25%.
An isotonic muscle stimulation was used to determine the performed work of the muscle over time. In this type of measurement, the shortening of the muscle during contraction is used as a basis. To this end, a preload which corresponds to the body weight was applied to the muscles. A series of stimulation pulses (80 msec) were triggered every 3 sec and the muscle was stimulated for 15 min. The data (contraction force and distance travelled) were converted to the work performed in the unit J using an automated system. The difference in the work performed between the immobilized atrophic and the normal muscle in the control animals was approximately -25%.
Values which are positive indicate that the functional parameters of the immobilized muscle were better than those of the contralateral normal muscle.

[2] = tested on: isolated guinea pig lung strips, Platelet activating factor (PAF); test: antagonist of PAF-induced contraction of isolated guinea pig lung strips; type: cell-based; details: Cavia porcellus, read-out: Anticontractile action (lung), PAF: concentration range corresponding to the IC50 value
Description: 4. Activity as an antagonist of the contraction of isolated guinea pig lung strips
The test carried out is based on the same principle as the test indicated in the pharmacological test 3; however, lung strips are used here.
Preparation of the organ sections and experimental procedure:
The guinea pig is sacrificed under laughing gas anaesthesia. The entire pulmonary tract is exposed starting from the trachea. The lobes of the lung are cut in a circular fashion such that 3 mm wide strips are formed. The strips of the upper lobes are divided in order to obtain a total of six approximately equal size strips. The strips are suspended in the organ baths under a preload of 4 g. The nutrient solutions used are modified Krebs Henseleit solutions. When using "Platelet activating factor" (PAF) as an […], the composition of this solution corresponds to that for the agonist SP in "Test 3"; for the agonist LTD4 a Krebs Henseleit solution as in the case of the agonist KCl (Test 3) is used. 95% by volume O2, 5% by volume CO2 is used for bubbling through the bath; the bath temperature is 37° C. The experimental procedure is carried out in a therapeutically cumulative methodology, using the dosage graduations 1, 3, 6 and 10 μg/ml.
The experimental animals, organ bath, vehicles and manner of administration correspond to that stated in pharmacological test 3.
All numerical values are indicated in the unit μg/ml and relate to the concentration range of tested compound of the formula I (see example numbers in Table 1) which is necessary in order to cause a contraction which corresponds to the IC50 value.

phosphodiesterase III = test: inhibition of phosphodiesterase III activity; type: biochemical; details: at 100 μM
Description: 5. Inhibition of phosphodiesterase III activity
The test is carried out using phosphodiesterase from Boehringer Mannheim (Mannheim, Germany), Order No. 108 243 according to the method of T. SAEKI, I. SAITO, Biochem. Pharm. 46, No. 5, […], pages 833-839.
All numerical values are indicated in % inhibition of the enzyme activity at 100 μM of the corresponding compound of the formula I.

[3] = lung strips, PAF, cumulative, 37° C.

SMILES | Muscle weight (right/left difference) (soleus muscle) | Force (force under the contraction curve, right/left difference) [1] | Work (performed work, right/left difference) [1] | IC50 [2] [µg/mL] | PDE III Inhibition (phosphodiesterase III) [%] | IC50 [2, 3] [µg/mL]
CCOP(=O)(CCCCn1cnc2c1c(=O)n(CCCCC(C)(C)O)c(=O)n2C)OCC [Example 5] | 0 Δ % | +10 Δ % | +10 Δ % |  |  | 
CCCCn1cnc2c1c(=O)n(CP(C)(C)=O)c(=O)n2CCCC [Example 72, [1-(3,7-Dibutylxanthin-1-yl)methyl]dimethylphosphine Oxide] | -18 Δ % | -2 Δ % | +4 Δ % |  |  | 
CCOP(=O)(CCCCCn1c(=O)c2c(ncn2CCC(C)C)n(C)c1=O)OCC [Example 56] |  | 0 Δ % | 0 Δ % |  |  | 
CCOCn1c(=O)c2c(ncn2CCCCP(=O)(OCC)OCC)n(C)c1=O [Example 6, Diethyl [4-(1-ethoxymethyl-3-methylxanthin-7-yl)butyl]phosphonate] | 0 Δ % | -4 Δ % | -4 Δ % |  |  | 
CCOP(=O)(CCCCn1c(=O)c2c(ncn2CCOC)n(C)c1=O)OCC [Example 31, Diethyl [4-(7-methoxyethyl-3-methylxanthin-1-yl)butyl]phosphonate] |  |  |  | 6 to 10 (≈ 14.4 to 24 µM) |  | 
CCOP(=O)(CCCCn1c(=O)c2c(ncn2CCCCP(=O)(OCC)OCC)n(C)c1=O)OCC [Example 7, Diethyl 4-{7-[4-(diethoxyphosphoryl)butyl]-3-methylxanthin-1-yl}butyl-phosphonate] |  |  |  | 3 to 6 (≈ 5.45 to 10.9 µM) |  | 
CCCCn1c(=O)c2c(ncn2CCCCCP(=O)(OCC)OCC)n(CCCC)c1=O [Example 10, Diethyl [5-(1,3-dibutylxanthin-7-yl)pentyl]phosphonate] | -13 Δ % | +1 Δ % | -9 Δ % |  |  | 
CCOP(=O)(CCCn1cnc2c1c(=O)n(C)c(=O)n2C)OCC [Example 8, Diethyl [3-(1,3-dimethylxanthin-7-yl)propyl]phosphonate] |  | -11 Δ % | -7 Δ % | 5 to 10 (≈ 14 to 27.9 µM) |  | 
CCOP(=O)(CCCCn1c(=O)c2c(ncn2CCC(C)C)n(C)c1=O)OCC [Example 41, Diethyl {4-[7-(3-methylbutyl)-3-methylxanthin-1-yl)butyl]phosphonate] |  |  |  |  | 56 | 
CCOP(=O)(CCCCn1c(=O)c2[nH]cnc2n(CC)c1=O)OCC [Example 37, Diethyl [4-(3-ethylxanthin-1-yl)butyl]phosphonate] |  |  |  | 1 to 3 (≈ 2.69 to 8.06 µM) |  | 
CP(C)(=O)Cn1c(=O)c2c(ncn2CC2CC2)n(-c2ccccc2)c1=O [Example 71, [1-(7-Cyclopropylmethyl-3-phenylxanthin-1-yl)methyl]dimethylphosphine Oxide] | 0 Δ % | +4 Δ % | +5 Δ % |  |  | 
CCCCn1c(=O)c2c(ncn2CP(C)(C)=O)n(CCCC)c1=O [Example 67, [1-(1,3-Dibutylxanthin-7-yl)methyl]dimethylphosphine Oxide] |  | -9 Δ % | -10 Δ % |  |  | 
CCOP(=O)(CCCCn1cnc2c1c(=O)n(C)c(=O)n2C)OCC [Example 1, Diethyl [4-(1,3-dimethylxanthin-7-yl)butyl]phosphonate] |  |  | -8 Δ % | 3 to 9 (≈ 8.06 to 24.2 µM) |  | 
CCOP(=O)(OCC)C(C)(C)CCCCn1c(=O)c2c(ncn2CCOC)n(C)c1=O [Example 22, Diethyl [5-(7-methoxyethyl-3-methylxanthin-1-yl)-1,1-dimethylpentyl]-phosphonate] | 0 Δ % | -3 Δ % | -13 Δ % |  |  | 
CCOCn1cnc2c1c(=O)n(CCCCP(=O)(O)O)c(=O)n2C.N.N [Example 28, Diammonium [4-(7-ethoxymethyl-3-methylxanthin-1-yl)butyl]phosphonate] |  |  |  |  |  | 3 to 9
CCOP(=O)(CCCCn1cnc2c1c(=O)[nH]c(=O)n2C)OCC [Example 3, Diethyl [4-(3-methylxanthin-7-yl)butyl]phosphonate] | 0 Δ % | 0 Δ % | 0 Δ % |  |  | 
CCOP(=O)(CCCCn1c(=O)c2c(ncn2CC2CC2)n(C)c1=O)OCC [Example 50, Diethyl [4-(7-cyclopropylmethyl-3-methylxanthin-1-yl)butyl]phosphonate] |  |  |  |  | 51 | 
CCOCn1cnc2c1c(=O)n(CCCP(=O)(OCC)OCC)c(=O)n2C [Example 36, Diethyl [3-(7-ethoxymethyl-3-methylxanthin-1-yl)propyl]phosphonate] |  |  |  | 5 to 15 (≈ 12.4 to 37.3 µM) |  | 
Cn1c(=O)n(CCCCP(=O)(O)O)c(=O)c2[nH]cnc21 [Example 25, Diammonium [4-(3-methylxanthin-1-yl)butyl]phosphonate] |  | +7 Δ % | -12 Δ % |  |  | 5 to 15
CCOP(=O)(CCCCn1c(=O)c2c(ncn2CCOC)n(CC)c1=O)OCC [Example 45, Diethyl [4-(3-ethyl-7-methoxyethylxanthin-1-yl)butyl]phosphonate] |  |  |  | 1 to 3 (≈ 2.32 to 6.97 µM) |  | 
CCCn1c(=O)c2c(ncn2CCCCP(=O)(OCC)OCC)n(C)c1=O [Example 13] | -24 Δ % | +5 Δ % | -3 Δ % | 6 to 10 (≈ 15 to 25 µM) |  | 
CCOCn1cnc2c1c(=O)n(CCCCP(=O)(OCC)OCC)c(=O)n2CC [Example 54, Diethyl [4-(7-ethoxymethyl-3-ethylxanthin-1-yl)butyl]phosphonate] |  |  |  | 1 to 3 (≈ 2.32 to 6.97 µM) |  | 
CCOCn1cnc2c1c(=O)n(CCCCP(=O)(OCC)OCC)c(=O)n2C [Example 26, Diethyl [4-(7-ethoxymethyl-3-methylxanthin-1-yl)butyl]phosphonate] | -22 Δ % | -3 Δ % | -17 Δ % |  |  | 
CCOCn1cnc2c1c(=O)n(CCCCP(=O)(OCC)OCC)c(=O)n2Cc1ccccc1 [Example 53, Diethyl [4-(3-benzyl-7-ethoxymethylxanthin-1-yl)butyl]phosphonate] | 0 Δ % | -3 Δ % | +10 Δ % | 1 to 3 (≈ 2.03 to 6.09 µM) |  | 
